Reference: patent US20100267561A1, “HERBICIDAL PYRIDAZINONE DERIVATIVES” (priority 2007, published 2010)

Key:
Type in all cases: in vivo
[1] = tested on: barnyardgrass (Echinochloa crus-galli); experiment: Test B flooded paddy test plant response
Procedure, shortened: (§1)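 Rice, umbrella sedge, ducksalad and barnyardgrass at 2-leaf stage; pots flooded to 3 cm, compounds applied into paddy water, depth held throughout. Greenhouse 13 to 15 days, then visual rating vs untreated controls on 0–100 scale (0 no effect, 100 complete control); dash means no test result.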

rice (Oryza sativa) = experiment: Test B flooded paddy test plant response
Procedure, shortened: as §1

wild oat (Avena fatua) = experiment: Test B pre-/postemergence plant response; details: for Oat, Wild plant response rating: 8 g ai/ha
Procedure, shortened: (§2)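 Preemergence and postemergence (plants 2-18 cm, 1- to 4-leaf stage) applications used test chemicals in a non-phytotoxic solvent with surfactant. Plants were held in a greenhouse 13 to 15 days, then rated visually against controls on a 0-100 scale (0 no effect, 100 complete control).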

[2] = tested on: morningglory (Ipomoea coccinea); experiment: Test B pre-/postemergence plant response; details: for Morningglory plant response rating: 8 g ai/ha
Procedure, shortened: as §2

[3] = tested on: eastern black (E.B.) nightshade (Solanum ptycanthum); experiment: Test B pre-/postemergence plant response; details: Preemergence
Procedure, shortened: as §2

[4] = tested on: pigweed (Amaranthus retroflexus); experiment: Test B pre-/postemergence plant response; details: for Pigweed plant response rating: 8 g ai/ha
Procedure, shortened: as §2

[5] = tested on: large crabgrass (Digitaria sanguinalis); experiment: Test B pre-/postemergence plant response; details: for Crabgrass, Large plant response rating: 8 g ai/ha
Procedure, shortened: as §2

[6] = tested on: blackgrass (Alopecurus myosuroides); experiment: Test B pre-/postemergence plant response; details: for Blackgrass plant response rating: 8 g ai/ha
Procedure, shortened: as §2

[7] = tested on: catchweed bedstraw (Galium aparine); experiment: Test B pre-/postemergence plant response; details: Preemergence
Procedure, shortened: as §2

[8] = tested on: johnsongrass (Sorghum halepense); experiment: Test B pre-/postemergence plant response; details: for Johnsongrass plant response rating: 8 g ai/ha
Procedure, shortened: as §2

[9] = tested on: common ragweed (Ambrosia elation); experiment: Test B pre-/postemergence plant response; details: for Ragweed plant response rating: 8 g ai/ha
Procedure, shortened: as §2

[10] = tested on: downy bromegrass (Bromus tectorum); experiment: Test B pre-/postemergence plant response; details: for Bromegrass, Downy plant response rating: 8 g ai/ha
Procedure, shortened: as §2

[11] = tested on: Italian ryegrass (Lolium multiflorum); experiment: Test B pre-/postemergence plant response; details: for Ryegrass, Italian plant response rating: 8 g ai/ha
Procedure, shortened: as §2

[12] = tested on: common (oilseed) sunflower (Helianthus annuus); experiment: Test B pre-/postemergence plant response; details: Preemergence
Procedure, shortened: as §2

[13] = Flood (flooded paddy test), 62 g ai/ha, scale 0 to 100, 0 no effect, 100 complete control
[14] = Flood (flooded paddy test), 125 g ai/ha, scale 0 to 100, 0 no effect, 100 complete control
[15] = Flood (flooded paddy test), 250 g ai/ha, scale 0 to 100, 0 no effect, 100 complete control
[16] = Flood, 31 g ai/ha, scale 0 to 100
[17] = Postemergence, 16 g ai/ha, scale 0 to 100
[18] = Postemergence, 31 g ai/ha, scale 0 to 100, 0 no effect, 100 complete control
[19] = Postemergence, 62 g ai/ha, scale 0 to 100, 0 no effect, 100 complete control
[20] = Preemergence, 16 g ai/ha, scale 0 to 100 (0 no effect, 100 complete control)
[21] = Preemergence, 31 g ai/ha, scale 0 to 100 (0 no effect, 100 complete control)
[22] = Preemergence, 62 g ai/ha, scale 0 to 100
[23] = 16 g ai/ha, scale 0 to 100 (0 no effect, 100 complete control)
[24] = 31 g ai/ha, scale 0 to 100 (0 no effect, 100 complete control)
[25] = Preemergence, 31 g ai/ha, 0 to 100 scale, 0 no effect, 100 complete control

CCc1cc(-c2ccc(Cl)cc2)nn1-c1c(OC(=O)C(C)(C)C)cnn(C)c1=O [Compound 40]
70: Plant response rating, Rice (rice (Oryza sativa); [14]) | Crabgrass, Large plant response rating ([5]; postemergence, 0-100 scale)
50: Bromegrass, Downy plant response rating ([10]; postemergence, 0-100 scale)
90: Plant response rating, Oat, Wild (wild oat (Avena fatua); [21]) | Plant response rating, Blackgrass [6, 17] | Plant response rating, Blackgrass [6, 18] | Plant response rating, Blackgrass [6, 19] | Johnsongrass plant response rating ([8]; Preemergence, scale 0 to 100) | Plant response rating, Bromegrass, Downy [10, 22]
98: Plant response rating, Crabgrass, Large [5, 17] | Plant response rating, Crabgrass, Large [5, 18] | Plant response rating, Johnsongrass [8, 18] | Plant response rating, Johnsongrass [8, 25] | Plant response rating, Johnsongrass [8, 22]
40: Plant response rating, Rice (rice (Oryza sativa); [13])
35: Plant response rating, Rice (rice (Oryza sativa); [16])
85: Plant response rating, Barnyardgrass [1, 13] | Plant response rating, Oat, Wild (wild oat (Avena fatua); [20]) | Blackgrass plant response rating ([6]; postemergence, 0-100 scale)
100: Plant response rating, Barnyardgrass [1, 14] | Plant response rating, Barnyardgrass [1, 15] | Plant response rating, Oat, Wild (wild oat (Avena fatua); [17]) | Plant response rating, Oat, Wild (wild oat (Avena fatua); [18]) | Plant response rating, Oat, Wild (wild oat (Avena fatua); [19]) | Plant response rating, Crabgrass, Large [5, 19] | Plant response rating, Crabgrass, Large [5, 20] | Plant response rating, Crabgrass, Large [5, 25] | Plant response rating, Crabgrass, Large [5, 22] | Plant response rating, Johnsongrass [8, 19] | Plant response rating, Bromegrass, Downy [10, 19] | Plant response rating, Ryegrass, Italian [11, 17] | Plant response rating, Ryegrass, Italian [11, 18] | Plant response rating, Ryegrass, Italian [11, 19] | Plant response rating, Ryegrass, Italian [11, 22]
45: Crabgrass, Large plant response rating ([5]; Preemergence, scale 0 to 100)
80: Plant response rating, Rice (rice (Oryza sativa); [15]) | Plant response rating, Bromegrass, Downy [10, 18] | Plant response rating, Bromegrass, Downy [10, 25] | Ryegrass, Italian plant response rating ([11]; postemergence, 0-100 scale) | Ryegrass, Italian plant response rating ([11]; Preemergence, scale 0 to 100)
60: Plant response rating, Barnyardgrass [1, 16] | Oat, Wild plant response rating (wild oat (Avena fatua); Preemergence, scale 0 to 100) | Plant response rating, Bromegrass, Downy [10, 17] | Plant response rating, Bromegrass, Downy [10, 20]
0: Morningglory plant response rating ([2]; postemergence, 0-100 scale) | Plant response rating, Morningglory [2, 17] | Plant response rating, Morningglory [2, 18] | Plant response rating, Morningglory [2, 19] | Plant response rating, Morningglory [2, 20] | Plant response rating, Morningglory [2, 21] | Plant response rating, Morningglory [2, 22] | Morningglory plant response rating ([2]; Preemergence, scale 0 to 100) | Plant response rating, Nightshade, E. B. [3, 23] | Plant response rating, Nightshade, E. B. [3, 24] | Plant response rating, Nightshade, E. B. ([3]; 62 g ai/ha, scale 0 to 100) | Nightshade, E. B. plant response rating ([3]; 8 g ai/ha, scale 0 to 100) | Pigweed plant response rating ([4]; postemergence, 0-100 scale) | Plant response rating, Pigweed [4, 17] | Plant response rating, Pigweed [4, 18] | Plant response rating, Pigweed [4, 19] | Plant response rating, Pigweed [4, 20] | Plant response rating, Pigweed [4, 21] | Plant response rating, Pigweed [4, 22] | Pigweed plant response rating ([4]; Preemergence, scale 0 to 100) | Plant response rating, Galium [7, 23] | Plant response rating, Galium ([7]; 31 g ai/ha, 0 to 100 scale, 0 no effect, 100 complete control) | Plant response rating, Galium ([7]; 62 g ai/ha, scale 0 to 100) | Galium plant response rating ([7]; 8 g ai/ha, scale 0 to 100) | Johnsongrass plant response rating ([8]; postemergence, 0-100 scale) | Plant response rating, Johnsongrass [8, 17] | Ragweed plant response rating ([9]; postemergence, 0-100 scale) | Plant response rating, Ragweed [9, 17] | Plant response rating, Ragweed [9, 18] | Plant response rating, Ragweed [9, 19] | Plant response rating, Ragweed [9, 20] | Plant response rating, Ragweed [9, 21] | Plant response rating, Ragweed [9, 22] | Ragweed plant response rating ([9]; Preemergence, scale 0 to 100) | Bromegrass, Downy plant response rating ([10]; Preemergence, scale 0 to 100) | Plant response rating, Sunflower [12, 23] | Plant response rating, Sunflower [12, 24] | Plant response rating, Sunflower ([12]; 62 g ai/ha, scale 0 to 100) | Sunflower plant response rating ([12]; 8 g ai/ha, scale 0 to 100)
95: Oat, Wild plant response rating (wild oat (Avena fatua); postemergence, 0-100 scale) | Plant response rating, Oat, Wild (wild oat (Avena fatua); [22]) | Plant response rating, Blackgrass [6, 20] | Plant response rating, Blackgrass [6, 25] | Plant response rating, Blackgrass [6, 22] | Blackgrass plant response rating ([6]; Preemergence, scale 0 to 100) | Plant response rating, Johnsongrass [8, 20] | Plant response rating, Ryegrass, Italian [11, 20] | Plant response rating, Ryegrass, Italian [11, 21]
